Data taken from patent US7271165B2, “Rifamycin analogs and uses thereof” (priority 2003, dated 2007).
Converted amounts (≈) assume the structure as drawn.

Experiments:
[1] = tested on: S. aureus; assay: MIC assay, S. aureus; format: cell-based, Staphylococcus aureus
[2] = tested on: E. faecalis; assay: MIC assay, E. faecalis; format: cell-based, Enterococcus faecalis
[3] = tested on: E coli; assay: MIC assay, E coli; format: cell-based
[4] = tested on: H. flu; format: cell-based, H. influenza; settings: H. flu
[5] = tested on: S. pneumo.; assay: MIC assay, S. pneumo.; format: cell-based, Streptococcus pneumoniae

Compound	MIC (μg/mL) S. aureus [1]	MIC (μg/mL) E. faecalis [2]	MIC (μg/mL) E coli [3]	MIC (μg/mL) H. flu [4]	MIC (μg/mL) S. pneumo. [5]
CO[C@H]1/C=C/O[C@@]2(C)Oc3c(C)c(O)c4c(=O)c(c5oc6cc(N7C[C@H]8CCCN[C@H]8C7)cc(O)c6nc-5c4c3C2=O)NC(=O)/C(C)=C\C=C\[C@H](C)[C@H](O)[C@@H](C)[C@@H](O)[C@@H](C)[C@H](OC(C)=O)[C@@H]1C [Compound 12, 3′-hydroxy-5′-[(4aR,7aR)-octahydro-6H-pyrrolo[3,4-b]pyridin-6-yl]benzoxazinorifamycin]	0.004 µg/mL (≈ 0.00432 µM)	0.12 µg/mL (≈ 0.13 µM)	8 µg/mL (≈ 8.65 µM)	0.25 µg/mL (≈ 0.27 µM)	0.00025 µg/mL (≈ 0.00027 µM)
CO[C@H]1/C=C/O[C@@]2(C)Oc3c(C)c(O)c4c(=O)c(c5oc6cc(N7CCC(NC(=O)OCC(C)C)CC7)cc(O)c6nc-5c4c3C2=O)NC(=O)/C(C)=C\C=C\[C@H](C)[C@H](O)[C@@H](C)[C@@H](O)[C@@H](C)[C@H](OC(C)=O)[C@@H]1C [Compound 13]	0.008 µg/mL (≈ 0.00801 µM)	0.5 µg/mL (≈ 0.5 µM)	4 µg/mL (≈ 4 µM)	2 µg/mL (≈ 2 µM)	0.00012 µg/mL (≈ 0.00012 µM)
CO[C@H]1/C=C/O[C@@]2(C)Oc3c(C)c(O)c4c(=O)c(c5oc6cc(N7C[C@H]8CCCN[C@H]8C7)cc(O)c6nc-5c4c3C2=O)NC(=O)/C(C)=C\C=C\[C@H](C)[C@H](O)[C@@H](C)[C@@H](O)[C@@H](C)[C@H](O)[C@@H]1C [Compound 15, 25-O-deacetyl-3′-hydroxy-5′-[(4aR,7aR)-octahydro-6H-pyrrolo[3,4-b]pyridin-6-yl]benzoxazinorifamycin]	0.03 µg/mL (≈ 0.034 µM)	0.25 µg/mL (≈ 0.283 µM)	>8 µg/mL	1 µg/mL (≈ 1.13 µM)	0.002 µg/mL (≈ 0.00226 µM)
CO[C@H]1/C=C/O[C@@]2(C)Oc3c(C)c(O)c4c(=O)c(c5oc6cc(N7CC8CCC(C7)N8)cc(O)c6nc-5c4c3C2=O)NC(=O)/C(C)=C\C=C\[C@H](C)[C@H](O)[C@@H](C)[C@@H](O)[C@@H](C)[C@H](O)[C@@H]1C [Compound 16, 25-O-deacetyl-3′-hydroxy-5′-(3,8-diazabicyclo[3.2.1]octan-3-yl)benzoxazinorifamycin]	0.015 µg/mL (≈ 0.0173 µM)	0.12 µg/mL (≈ 0.138 µM)	4 µg/mL (≈ 4.6 µM)	0.25 µg/mL (≈ 0.288 µM)	0.001 µg/mL (≈ 0.00115 µM)
CO[C@H]1/C=C/O[C@@]2(C)Oc3c(C)c(O)c4c(=O)c(c5oc6cc(N7CCC(N(C)C)CC7)cc(O)c6nc-5c4c3C2=O)NC(=O)/C(C)=C\C=C\[C@H](C)[C@H](O)[C@@H](C)[C@@H](O)[C@@H](C)[C@H](OC(C)=O)[C@@H]1C [Compound 17, 3′-hydroxy-5′-(4-N,N-dimethylamino-1-piperidinyl)benzoxazinorifamycin]	0.008 µg/mL (≈ 0.00863 µM)	1 µg/mL (≈ 1.08 µM)	8 µg/mL (≈ 8.63 µM)	1 µg/mL (≈ 1.08 µM)	0.00012 µg/mL (≈ 0.000129 µM)
CO[C@H]1/C=C/O[C@@]2(C)Oc3c(C)c(O)c4c(=O)c(c5oc6cc(N7CCC(N(C)C)CC7)cc(O)c6nc-5c4c3C2=O)NC(=O)/C(C)=C\C=C\[C@H](C)[C@H](O)[C@@H](C)[C@@H](O)[C@@H](C)[C@H](O)[C@@H]1C [Compound 18, 25-O-deacetyl-3′-hydroxy-5′-(4-N,N dimethylamino-1-piperidinyl)benzoxazinorifamycin]	0.004 µg/mL (≈ 0.00452 µM)	0.12 µg/mL (≈ 0.136 µM)	4 µg/mL (≈ 4.52 µM)	0.5 µg/mL (≈ 0.565 µM)	0.00012 µg/mL (≈ 0.000136 µM)
CCOC(=O)NC1CCN(c2ccc3nc4c5c6c7c(C)c(O)c5c(=O)c(c-4n(C)c3c2)NC(=O)/C(C)=C\C=C\[C@H](C)[C@H](O)[C@@H](C)[C@@H](O)[C@@H](C)[C@H](OC(C)=O)[C@H](C)[C@@H](OC)/C=C/O[C@@](C)(O7)C6=O)CC1 [Compound 19]	0.004 µg/mL (≈ 0.00413 µM)	0.06 µg/mL (≈ 0.062 µM)	4 µg/mL (≈ 4.13 µM)	0.25 µg/mL (≈ 0.258 µM)	0.001 µg/mL (≈ 0.00103 µM)
